# PubChem BioAssay (NCI)
#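 The compound was tested at five concentrations on cells cultured in 96-well plates, with a 48-hour exposure period. The concentration for 50% growth inhibition is given as GI50. TGI: total growth inhibition.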
# Key:
# Test in all cases: NCI tumour cell line growth inhibition, 48 h
# LOX IMVI melanoma = test system: LOX IMVI melanoma
# SF-295 CNS = test system: SF-295 CNS
# HCT-15 colon = test system: HCT-15 colon
# U251 CNS = test system: U251 CNS
# KM12 colon = test system: KM12 colon
# SNB-75 CNS = test system: SNB-75 CNS
# BT-549 breast = test system: BT-549 breast
# SN12C renal = test system: SN12C renal
# OVCAR-4 ovarian = test system: OVCAR-4 ovarian
# NCI/ADR-RES ovarian = test system: NCI/ADR-RES ovarian
# COLO 205 colon = test system: COLO 205 colon
# DU-145 prostate = test system: DU-145 prostate
# SK-MEL-5 melanoma = test system: SK-MEL-5 melanoma
# ACHN renal = test system: ACHN renal
# NCI-H522 lung = test system: NCI-H522 lung
# HT29 colon = test system: HT29 colon
# CAKI-1 renal = test system: CAKI-1 renal
# RPMI-8226 leukemia = test system: RPMI-8226 leukemia
# UACC-257 melanoma = test system: UACC-257 melanoma
# SK-MEL-2 melanoma = test system: SK-MEL-2 melanoma
# SNB-19 CNS = test system: SNB-19 CNS
# SR leukemia = test system: SR leukemia
# SF-268 CNS = test system: SF-268 CNS
# M14 melanoma = test system: M14 melanoma
# SK-MEL-28 melanoma = test system: SK-MEL-28 melanoma
# MOLT-4 leukemia = test system: MOLT-4 leukemia
# UACC-62 melanoma = test system: UACC-62 melanoma
# UO-31 renal = test system: UO-31 renal
# MDA-MB-231 breast = test system: MDA-MB-231 breast
smiles,measurement,setting,value
C1CCC(C(CC2CCCCN2)C2CCCCC2)CC1 (stereo not drawn),GI50,LOX IMVI melanoma,1570 nM
same,TGI,LOX IMVI melanoma,3.21 µM
same,GI50,SF-295 CNS,1730 nM
same,TGI,SF-295 CNS,3.21 µM
same,GI50,HCT-15 colon,1810 nM
same,TGI,HCT-15 colon,3.48 µM
same,GI50,U251 CNS,1590 nM
same,TGI,U251 CNS,3.02 µM
same,GI50,KM12 colon,1870 nM
same,TGI,KM12 colon,3.42 µM
same,GI50,SNB-75 CNS,1770 nM
same,TGI,SNB-75 CNS,3.43 µM
same,GI50,BT-549 breast,1930 nM
same,TGI,BT-549 breast,3.51 µM
same,GI50,SN12C renal,1510 nM
same,TGI,SN12C renal,2970 nM
same,GI50,OVCAR-4 ovarian,1650 nM
same,TGI,OVCAR-4 ovarian,3.04 µM
same,GI50,NCI/ADR-RES ovarian,1880 nM
same,TGI,NCI/ADR-RES ovarian,3.81 µM
same,GI50,COLO 205 colon,1420 nM
same,TGI,COLO 205 colon,2790 nM
same,GI50,DU-145 prostate,1800 nM
same,TGI,DU-145 prostate,3.21 µM
same,GI50,SK-MEL-5 melanoma,1550 nM
same,TGI,SK-MEL-5 melanoma,2910 nM
same,GI50,ACHN renal,1830 nM
same,TGI,ACHN renal,3.32 µM
same,GI50,NCI-H522 lung,1600 nM
same,TGI,NCI-H522 lung,3.16 µM
same,GI50,HT29 colon,1550 nM
same,TGI,HT29 colon,3.06 µM
same,GI50,CAKI-1 renal,1550 nM
same,TGI,CAKI-1 renal,3.06 µM
same,GI50,RPMI-8226 leukemia,2170 nM
same,TGI,RPMI-8226 leukemia,5.56 µM
same,GI50,UACC-257 melanoma,1710 nM
same,TGI,UACC-257 melanoma,3.53 µM
same,GI50,SK-MEL-2 melanoma,2030 nM
same,TGI,SK-MEL-2 melanoma,3.69 µM
same,GI50,SNB-19 CNS,1780 nM
same,TGI,SNB-19 CNS,3.51 µM
same,GI50,SR leukemia,2740 nM
same,TGI,SR leukemia,6.67 µM
same,GI50,SF-268 CNS,1770 nM
same,TGI,SF-268 CNS,3.23 µM
same,GI50,M14 melanoma,1760 nM
same,TGI,M14 melanoma,3.34 µM
same,GI50,SK-MEL-28 melanoma,1880 nM
same,TGI,SK-MEL-28 melanoma,3.3 µM
same,GI50,MOLT-4 leukemia,2450 nM
same,TGI,MOLT-4 leukemia,4.98 µM
same,GI50,UACC-62 melanoma,1530 nM
same,TGI,UACC-62 melanoma,2960 nM
same,GI50,UO-31 renal,1330 nM
same,TGI,UO-31 renal,2650 nM
same,GI50,MDA-MB-231 breast,1250 nM
same,TGI,MDA-MB-231 breast,2600 nM
